What all share (assay type): cell-based
One assay concerns U266. Put plainly: Cytotoxicity, CellTiter-Glo assay, U266 (multiple myeloma). Conditions: Homo sapiens, U-266; U266 (multiple myeloma) cells; read-out: Growth inhibition GI50. How it is done:
(§1) The cytotoxic activities of 1 and 6–8 against adherent cells and suspension cells were conducted by SRB (sulforhodamine B) assay and CellTiter-Glo assay, respectively, as described earlier. The compounds were dissolved and serially diluted in dimethyl sulfoxide. GraphPad Prism 8 (GraphPad Software Inc., San Diego, CA, USA) was used to determine GI50 values. Cancer and normal cell lines were purchased from the Japanese Cancer Research Resources Bank (JCRB) (NUGC-3, JCRB Cell Bank/Cat. # JCRB0822), the DSMZ-German Collection of Microorganisms and Cell Cultures (RPMI-8402, DSMZ/Cat # ACC 290; WSU-DLCL2, DSMZ/Cat # ACC 575), and the American Type Culture Collection (ATCC) (PC-3, ATCC/Cat. # CRL-1435; MDA-MB-231, ATCC/Cat. # HTB-26; ACHN, ATCC/Cat. # CRL-1611; NCI-H23, ATCC/Cat. # CRL-5800; HCT-15, ATCC/Cat. # CCL-225; HL-60, ATCC/Cat. # CCL-240; Raji, ATCC/Cat # CCL-86; K562, ATCC/Cat # CCL-243; NALM6, ATCC/Cat # CRL-3273; U266, ATCC/Cat # TIB-196); RPMI-1788, ATCC/Cat # TIB-156). Cells were cultured in Dulbecco’s Modified Eagles medium (ACHN, MDA-MB-231), RPMI-1640 medium (HCT-15, PC-3, NUGC-3, NCI-H23, Raji, NALM6, U266, WSU-DLCL2, RPMI-1788) or Improved Minimum Essential Medium (K562, HL-60), supplemented with fetal bovine serum and penicillin-streptomycin.
For orientation: ATP-based viability assays read luminescence as a measure of living cells.

Another assay deals with NALM6. Put plainly: Cytotoxicity, CellTiter-Glo assay, NALM6 (B-ALL). Particulars: Homo sapiens, NALM-6; NALM6 (B cell acute lymphocytic leukemia) cells; read-out: Growth inhibition GI50. As to the method: as §1
The subject of the next assay is HL-60. Put plainly: Cytotoxicity, CellTiter-Glo assay, HL-60 (AML). Conditions: Homo sapiens; HL-60 (acute myelogenous leukemia) cells; read-out: Growth inhibition GI50. As to the method:
as §1

The test system of another assay is K562. Put plainly: Cytotoxicity, CellTiter-Glo assay, K562 (CML). Particulars: Homo sapiens; K562 (chronic myelogenous leukemia) cells; read-out: Growth inhibition GI50. As to the method:
as §1

The next assay has as its system NCI-H23. The experiment in a line: Cytotoxicity, SRB assay, NCI-H23 (lung). Conditions: Homo sapiens; NCI-H23 (lung) cells; read-out: Growth inhibition GI50. As to the method:
as §1
(The SRB assay estimates cell density from bound dye.)

The next assay relates to MDA-MB-231. Put plainly: Cytotoxicity, SRB assay, MDA-MB-231 (breast). Conditions: Homo sapiens; MDA-MB-231 (breast) cells; read-out: Growth inhibition GI50. As to the method:
as §1

The subject of a further assay is RPMI-1788. Put plainly: Cytotoxicity, CellTiter-Glo assay, normal RPMI-1788 (B lymphocytes). Particulars: RPMI-1788 (normal B lymphocytes) cell line; read-out: Growth inhibition GI50. How it is done:
as §1

In another assay the test system is ACHN. Put plainly: Cytotoxicity, SRB assay, ACHN (renal). Particulars: Homo sapiens; ACHN (renal) cells; read-out: Growth inhibition GI50. How it is done: as §1
The subject of another assay is Raji. The experiment in a line: Cytotoxicity, CellTiter-Glo assay, Raji (Burkitt's lymphoma). Particulars: Homo sapiens; Raji (Burkitt's lymphoma) cells; read-out: Growth inhibition GI50. As to the method: as §1
The test system of another assay is RPMI-8402. The experiment in a line: Cytotoxicity, CellTiter-Glo assay, RPMI-8402 (T-ALL). Conditions: Homo sapiens; RPMI-8402 (T cell acute lymphocytic leukemia) cells; read-out: Growth inhibition GI50. As to the method: as §1
The next assay concerns HCT-15. Put plainly: Cytotoxicity, SRB assay, HCT-15 (colon). Conditions: Homo sapiens; HCT-15 (colon) cells; read-out: Growth inhibition GI50. How it is done:
as §1

A further assay deals with WSU-DLCL2. The experiment in a line: Cytotoxicity, CellTiter-Glo assay, WSU-DLCL2 (DLBCL). Conditions: Homo sapiens, WSUDLCL2; WSU-DLCL2 (diffuse large B cell lymphoma) cells; read-out: Growth inhibition GI50. As to the method: as §1
A further assay deals with PC-3. The experiment in a line: Cytotoxicity, SRB assay, PC-3 (prostate). Conditions: Homo sapiens; PC-3 (prostate) cells; read-out: Growth inhibition GI50. How it is done: as §1
A further assay has as its system NUGC-3. The experiment in a line: Cytotoxicity, SRB assay, NUGC-3 (stomach). Particulars: Homo sapiens; NUGC-3 (stomach) cells; read-out: Growth inhibition GI50. How it is done:
as §1

In assay [1] the test system is all the tested cell lines. Put plainly: Cytotoxicity against the whole panel (one normal, six solid, seven blood cancer cell lines). Particulars: span over one normal, six solid and seven blood cancer cell lines; read-out: GI50 across all the tested cell lines. How it is done: as §1
Another assay relates to solid cancer cells. Put plainly: Cytotoxicity against solid cancer cells (SRB assay). Conditions: span over solid cancer cell lines. As to the method:
as §1

Experimental findings from PMC10532523, “Rifamycin-Related Polyketides from a Marine-Derived Bacterium Salinispora arenicola and Their Cytotoxic Activity” (Marine Drugs, 2023) are described below.

A value given as a limit tells only on which side of the number the result lay.

Usually GI50 stands for the concentration that inhibits growth by half.

In the case of `COc1cccc2c1C(=O)c1c(O)c3c(c(O)c1C2=O)C[C@@](O)(C(=O)CO)C[C@@H]3O[C@H]1C[C@H](N)[C@H](O)[C@H](C)O1` [Adr., Adriamycin, reference compound], the GI50 stood at 34 nM in the assay on U266; 0.002 µM with NALM6; 0.021 µM with HL-60; 0.057 µM in the assay with K562; 0.151 µM in the assay on NCI-H23; 0.159 µM in the assay with MDA-MB-231. Moreover, the GI50 stood at 0.014 µM in the assay on RPMI-1788; 0.168 µM in the assay with ACHN; 0.003 µM in the assay with Raji; 0.014 µM with RPMI-8402; 0.137 µM with HCT-15; 0.002 µM in the assay with WSU-DLCL2. Further, the GI50 was determined as 0.144 µM in the assay on PC-3 and 0.136 µM in the assay with NUGC-3.

As to `CC(=CC1C(=O)OC(C(C)C(O)C(C)C(O)C(C)C=CC=C(C)C(=O)NC2=CC(=O)c3cc(O)c(C)c(O)c3C2=O)C(C)C1O)C(=O)O` (centres unmarked) [Compound 1, salinisporamycin C], the GI50 was 2630 nM with U266; 4.28 µM in the assay on NALM6; 9.96 µM in the assay with HL-60; 2.36 to 9.96 µM in [1]; 7.17 µM with K562; 8.05 µM in the assay on NCI-H23. For the same compound, the GI50 is 8.79 µM in the assay on MDA-MB-231; 8.47 µM in the assay on RPMI-1788; 8.45 µM in the assay on ACHN; 5.37 µM with Raji; 4.75 µM in the assay on RPMI-8402; 9.25 µM in the assay with HCT-15. The figures for the GI50 with WSU-DLCL2, in the assay on PC-3 and with NUGC-3 were 2.36 µM, 8.46 µM and 7.41 µM, respectively.

For the compound `CC1=CC=CC(C)C(O)C(C)C(O)C(C)C(O)C(C)C(O)C=COC2(C)Oc3c(C)cc4c(O)c(cc(OC(=O)CO)c4c3C2=O)NC1=O` (centres unmarked) [Compound 6, 8-deoxy-25-desacetyl-27-demethyl-rifamycin L], the GI50 was 2300 nM in the assay with U266; 4.76 µM in the assay with NALM6; 21.8 to 29.8 µM in the assay with solid cancer cells; 4.79 µM in the assay with HL-60; 9.53 µM in the assay with K562; 21.8 µM with NCI-H23. For the same compound, the GI50 is above 30 µM with MDA-MB-231; 4.93 µM in the assay on RPMI-1788; above 30 µM in the assay with ACHN; 12.1 µM with Raji; 2.45 µM in the assay on RPMI-8402; 24.2 µM with HCT-15. The GI50 with WSU-DLCL2 was 5.4 µM; in the assay with PC-3, 26.6 µM; in the assay with NUGC-3, 29.8 µM.

Consider `CC(=O)CC1OC(C(C)C(O)C(C)C(O)C(C)C=CC=C(C)C(N)=O)C(C)C1O` (centres unmarked) [Compound 7, salinifuran A], for which the GI50 with U266 is above 30000 nM; with NALM6 it was 26.8 µM; in the assay with HL-60, above 30 µM; in the assay with K562 it was above 30 µM; with NCI-H23 it was above 30 µM; in the assay on MDA-MB-231, above 30 µM. Further, the concentration for 50% growth inhibition (GI50) with ACHN, in the assay with Raji, in the assay with RPMI-8402, in the assay on HCT-15, with WSU-DLCL2 and with PC-3 was above 30 µM throughout. In the assay on NUGC-3, the GI50 was above 30 µM.

`C/C(=C/C=C/[C@H](C)[C@H](O)[C@@H](C)[C@@H](O)[C@@H](C)[C@@H]1O[C@@]2(C)CC[C@@H](O2)[C@H]1C)C(N)=O` [Compound 8, saliniketal A]: the GI50 is above 30000 nM with U266; above 30 µM in the assay on NALM6; above 30 µM in the assay with HL-60; above 30 µM in assay [1]; above 30 µM in the assay with K562; above 30 µM with NCI-H23. In addition, the GI50 in the assay with MDA-MB-231, in the assay on ACHN, in the assay on Raji, with RPMI-8402, with HCT-15 and with WSU-DLCL2 was above 30 µM throughout. The GI50 with PC-3 and in the assay on NUGC-3 was above 30 µM each time.
